The source of these data is US20230293458A1, “MULTIBIOTIC AGENTS AND METHODS OF USING THE SAME” (Flagship Pioneering Innovations V, Inc., priority 2017, published 2023).

Data set [1] is described as follows: Stability of multibiotic agents in Simulated Gastric Fluid (SGF). It counts as in vitro ADME. Conditions: simulated gastric fluid pH 1.6 with pepsin, 37° C., 1 μM. The gist of the method:
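Compounds were incubated at 1 μM final at 37 °C in simulated gastric fluid containing NaCl, pH 1.6, with FaSSIF powder and 0.1 mg/mL pepsin. Aliquots were taken at T0 and at regular intervals and quenched with acetonitrile. Degradation rates were determined by LC/MS.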

Data set [2] can be described thus: Stability of multibiotic agents in Simulated Intestinal Fluid (SIF). It counts as in vitro ADME. The conditions noted are these: simulated intestinal fluid pH 6.7 with pancreatin, 37° C., 1 μM. Put shortly:
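Compounds at 1 μM final (from 1 mM DMSO stock) incubated at 37 °C with agitation in fresh SIF (FaSSIF plus pancreatin in pH 6.7 phosphate buffer). Aliquots taken at T0 and regular intervals, quenched with 1 volume acetonitrile. Degradation rate determined by LC/MS.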

As to `O=C(Cc1c[nH]c2ccccc12)OC[C@@H](OC(=O)Cc1c[nH]c2ccccc12)[C@H]1OC[C@H](OC(=O)Cc2c[nH]c3ccccc23)[C@H]1OC(=O)Cc1c[nH]c2ccccc12` [Example 106, [(2R)-2-[(2R,3R,4S)-3,4-bis[[2-(1H-indol-3-yl)acetyl]oxy]tetrahydrofuran-2-yl]-2-[2-(1H-indol-3-yl)acetyl]oxy-ethyl] 2-(1H-indol-3-yl)acetate], in data set [1], the “Assay 2 (SGF) (% Remaining @ 4 hours)” value was “C (>75% of the tested compound remaining)”. In addition, the “Assay 3 (SIF) (% @ Remaining 4 hours)” value in data set [2] is given as “C (>75% of the tested compound remaining)”.

On to `O=C(CCc1c[nH]c2ccccc12)OC[C@@H](OC(=O)CCc1c[nH]c2ccccc12)[C@H]1OC[C@H](OC(=O)CCc2c[nH]c3ccccc23)[C@H]1OC(=O)CCc1c[nH]c2ccccc12` [Example 107, [(2R)-2-[(2R,3R,4S)-3,4-bis[3-(1H-indol-3-yl)propanoyloxy]tetrahydrofuran-2-yl]-2-[3-(1H-indol-3-yl)propanoyloxy]ethyl] 3-(1H-indol-3-yl)propanoate], for which the “Assay 2 (SGF) (% Remaining @ 4 hours)” value in data set [1] is on record as “C (>75% of the tested compound remaining)”. For the same compound, in data set [2], the “Assay 3 (SIF) (% @ Remaining 4 hours)” value is “B (25-75% of the tested compound remaining)”.

As for `CCCC(=O)O[C@H]1CO[C@H]2[C@@H]1OC[C@H]2OC(=O)CCC` [Example 108, [(3S,3aR,6R,6aR)-6-butanoyloxy-2,3,3a,5,6,6a-hexahydrofuro[3,2-b]furan-3-yl] butanoate], the “Assay 2 (SGF) (% Remaining @ 4 hours)” value in data set [1] is on record as “C (>75% of the tested compound remaining)”. The “Assay 3 (SIF) (% @ Remaining 4 hours)” value in data set [2] was “B (25-75% of the tested compound remaining)”.

With `O=C(CCc1c[nH]c2ccccc12)O[C@H]1CO[C@H]2[C@@H]1OC[C@H]2OC(=O)CCc1c[nH]c2ccccc12` [Example 110, [(3S,3aR,6R,6aR)-6-[3-(1H-indol-3-yl)propanoyloxy]-2,3,3a,5,6,6a-hexahydrofuro[3,2-b]furan-3-yl] 3-(1H-indol-3-yl) propanoate], in data set [1], the “Assay 2 (SGF) (% Remaining @ 4 hours)” value was “C (>75% of the tested compound remaining)”. In addition, the “Assay 3 (SIF) (% @ Remaining 4 hours)” value in data set [2] was “A (<25% of the tested compound remaining)”.

As for `C[C@@H](O)CC(=O)OCCCNC(=O)[C@H](OC(=O)C[C@@H](C)O)C(C)(C)COC(=O)C[C@@H](C)O` [Example 111, 3-[[(2R)-2,4-bis[[(3R)-3-hydroxybutanoyl]oxy]-3,3-dimethyl-butanoyl]amino]propyl (3R)-3-hydroxybutanoate], in data set [1], the “Assay 2 (SGF) (% Remaining @ 4 hours)” value was “C (>75% of the tested compound remaining)”. Also, the “Assay 3 (SIF) (% @ Remaining 4 hours)” value in data set [2] is recorded as “C (>75% of the tested compound remaining)”.

`C[C@@H](O)CC(=O)OCC(C)(C)[C@@H](OC(=O)C[C@@H](C)O)C(=O)NCCC(N)=O` [Example 114, [(3R)-4-[(3-amino-3-oxo-propyl)amino]-3-[(3R)-3-hydroxybutanoyl]oxy-2,2-dimethyl-4-oxo-butyl] (3R)-3-hydroxybutanoate]: the “Assay 2 (SGF) (% Remaining @ 4 hours)” value in data set [1] was “C (>75% of the tested compound remaining)”. Further, the “Assay 3 (SIF) (% @ Remaining 4 hours)” value in data set [2] is “C (>75% of the tested compound remaining)”.

As for `CC(=O)CC(=O)O[C@H]1CO[C@H]2[C@@H]1OC[C@H]2OC(=O)CC(C)=O` [Example 115, [(3S,3aR,6R,6aR)-6-(3-oxobutanoyloxy)-2,3,3a,5,6,6a-hexahydrofuro[3,2-b]furan-3-yl] 3-oxobutanoate], the “Assay 2 (SGF) (% Remaining @ 4 hours)” value in data set [1] is given as “C (>75% of the tested compound remaining)”. Further, in data set [2], the “Assay 3 (SIF) (% @ Remaining 4 hours)” value is on record as “B (25-75% of the tested compound remaining)”.

As to `CCCC(=O)Nc1ccc(O)c(C(=O)O)c1` [Example 116, 5-(butanoylamino)-2-hydroxy-benzoic acid], in data set [1], the “Assay 2 (SGF) (% Remaining @ 4 hours)” value was “C (>75% of the tested compound remaining)”. In addition, the “Assay 3 (SIF) (% @ Remaining 4 hours)” value in data set [2] is on record as “C (>75% of the tested compound remaining)”.

As for `CCCC(=O)O[C@@H]1[C@H](OC(=O)CCC)COC(Oc2ccc(N)cc2C(=O)O)[C@@H]1OC(=O)CCC` (stereo partly drawn) [Example 117, 5-amino-2-[(3R,4R,5R)-3,4,5-tri(butanoyloxy)tetrahydropyran-2-yl]oxy-benzoic acid], the “Assay 2 (SGF) (% Remaining @ 4 hours)” value in data set [1] is listed as “C (>75% of the tested compound remaining)”. Further, the “Assay 3 (SIF) (% @ Remaining 4 hours)” value in data set [2] is recorded as “C (>75% of the tested compound remaining)”.

`CC(=O)Oc1ccc(/C=C/c2cc(OC(C)=O)cc(OC(C)=O)c2)cc1` [Example 118, [(E)-2-(3,5-diacetoxyphenyl)vinyl]phenyl] acetate]: the “Assay 2 (SGF) (% Remaining @ 4 hours)” value in data set [1] is given as “C (>75% of the tested compound remaining)”. Moreover, the “Assay 3 (SIF) (% @ Remaining 4 hours)” value in data set [2] is listed as “C (>75% of the tested compound remaining)”.

Turning to `CCCC(=O)O[C@H](C)CC(=O)Oc1ccc2c(c1)oc(=O)c1cc(OC(=O)C[C@@H](C)OC(=O)CCC)c(OC(=O)C[C@@H](C)OC(=O)CCC)cc12` [Example 122, [8,9-bis[[(3R)-3-butanoyloxybutanoyl]oxy]-6-oxo-benzo[c]chromen-3-yl] (3R)-3-butanoyloxybutanoate], the “Assay 2 (SGF) (% Remaining @ 4 hours)” value in data set [1] is listed as “C (>75% of the tested compound remaining)”. In addition, the “Assay 3 (SIF) (% @ Remaining 4 hours)” value in data set [2] is given as “A (<25% of the tested compound remaining)”.

Regarding `O=C(/C=C/c1c[nH]c2ccccc12)O[C@H]1CO[C@H]2[C@@H]1OC[C@H]2OC(=O)/C=C/c1c[nH]c2ccccc12` [Example 123, [(3R,3aR,6S,6aR)-6-[(E)-3-(1H-indol-3-yl)prop-2-enoyl]oxy-2,3,3a,5,6,6a-hexahydrofuro[3,2-b]furan-3-yl] (E)-3-(1H-indol-3-yl)prop-2-enoate], the “Assay 2 (SGF) (% Remaining @ 4 hours)” value in data set [1] is “C (>75% of the tested compound remaining)”. The “Assay 3 (SIF) (% @ Remaining 4 hours)” value in data set [2] is “C (>75% of the tested compound remaining)”.

`CC(C)(COC(=O)/C=C/c1c[nH]c2ccccc12)[C@@H](OC(=O)/C=C/c1c[nH]c2ccccc12)C(=O)NCCC(N)=O` [Example 124, [(3R)-4-[(3-amino-3-oxo-propyl)amino]-3-[(E)-3-(1H-indol-3-yl)prop-2-enoyl]oxy-2,2-dimethyl-4-oxo-butyl] (E)-3-(1H-indol-3-yl)prop-2-enoate]: in data set [1], the “Assay 2 (SGF) (% Remaining @ 4 hours)” value was “C (>75% of the tested compound remaining)”. Moreover, the “Assay 3 (SIF) (% @ Remaining 4 hours)” value in data set [2] is recorded as “C (>75% of the tested compound remaining)”.

Consider `CC(C)(COC(=O)/C=C/c1c[nH]c2ccccc12)[C@@H](OC(=O)/C=C/c1c[nH]c2ccccc12)C(=O)NCCCOC(=O)/C=C/c1c[nH]c2ccccc12` [Example 125, 3-[[(2R)-2,4-bis[[(E)-3-(1H-indol-3-yl)prop-2-enoyl]oxy]-3,3-dimethyl-butanoyl]amino]propyl (E)-3-(1H-indol-3-yl)prop-2-enoate], for which the “Assay 2 (SGF) (% Remaining @ 4 hours)” value in data set [1] is given as “C (>75% of the tested compound remaining)”. For the same compound, the “Assay 3 (SIF) (% @ Remaining 4 hours)” value in data set [2] is reported as “C (>75% of the tested compound remaining)”.

For `CCCC(=O)NCCCNC(=O)CCC` [Example 126, N-[3-(butanoylamino)propyl]butanamide], in data set [1], the “Assay 2 (SGF) (% Remaining @ 4 hours)” value was “C (>75% of the tested compound remaining)”. Also, the “Assay 3 (SIF) (% @ Remaining 4 hours)” value in data set [2] is “C (>75% of the tested compound remaining)”.

As for `CCCC(=O)NCCCCN(CCCNC(=O)CCC)C(=O)CCC` [Example 127, N-[4-[butanoyl-[3-(butanoylamino)propyl]amino]butyl]butanamide], the “Assay 2 (SGF) (% Remaining @ 4 hours)” value in data set [1] was “C (>75% of the tested compound remaining)”. Also, in data set [2], the “Assay 3 (SIF) (% @ Remaining 4 hours)” value is given as “C (>75% of the tested compound remaining)”.

As to `CCCC(=O)NCCCN(CCCCN(CCCNC(=O)CCC)C(=O)CCC)C(=O)CCC` [Example 128, N-[3-[butanoyl-[4-[butanoyl-[3-(butanoylamino)propyl]amino]butyl]amino]propyl]butanamide], the “Assay 2 (SGF) (% Remaining @ 4 hours)” value in data set [1] is reported as “C (>75% of the tested compound remaining)”. In addition, in data set [2], the “Assay 3 (SIF) (% @ Remaining 4 hours)” value is on record as “C (>75% of the tested compound remaining)”.

`CCCC(=O)NCCCN(CCCNC(=O)CCC)C(=O)CCC` [Example 129, N-[3-[butanoyl-[3-(butanoylamino)propyl]amino]propyl]butanamide]: in data set [1], the “Assay 2 (SGF) (% Remaining @ 4 hours)” value is on record as “C (>75% of the tested compound remaining)”. In data set [2], the “Assay 3 (SIF) (% @ Remaining 4 hours)” value is reported as “C (>75% of the tested compound remaining)”.

On to `CCCC(=O)N1CCN(C(=O)CCC)CC1` [Example 130, 1-(4-butanoylpiperazin-1-yl)butan-1-one], for which, in data set [1], the “Assay 2 (SGF) (% Remaining @ 4 hours)” value was “C (>75% of the tested compound remaining)”. In data set [2], the “Assay 3 (SIF) (% @ Remaining 4 hours)” value was “C (>75% of the tested compound remaining)”.

As for `CCCC(=O)N(C)CCCN(C)C(=O)CCC` [Example 131, N-[3-[butanoyl(methyl)amino]propyl]-N-methyl-butanamide], the “Assay 2 (SGF) (% Remaining @ 4 hours)” value in data set [1] was “C (>75% of the tested compound remaining)”. The “Assay 3 (SIF) (% @ Remaining 4 hours)” value in data set [2] was “C (>75% of the tested compound remaining)”.

`CCCC(=O)N[C@H]1CC[C@H](NC(=O)CCC)CC1` [Example 132, trans-N-[4-(butanoylamino)cyclohexyl]butanamide]: the “Assay 2 (SGF) (% Remaining @ 4 hours)” value in data set [1] is reported as “C (>75% of the tested compound remaining)”. Also, the “Assay 3 (SIF) (% @ Remaining 4 hours)” value in data set [2] was “C (>75% of the tested compound remaining)”.

On to `CCCC(=O)NCCC[C@H](NC(=O)CCC)C(=O)O` [Example 133, (2S)-2,5-bis(butanoylamino)pentanoic acid], for which the “Assay 2 (SGF) (% Remaining @ 4 hours)” value in data set [1] was “C (>75% of the tested compound remaining)”. The “Assay 3 (SIF) (% @ Remaining 4 hours)” value in data set [2] is given as “C (>75% of the tested compound remaining)”.

In the case of `CCCC(=O)/N=C(/NCCCCNC(=O)CCC)NC(=O)CCC` [Example 134, N-[4-[[(Z)—N,N′-di(butanoyl)carbamimidoyl]amino]butyl]butanamide], in data set [1], the “Assay 2 (SGF) (% Remaining @ 4 hours)” value was “C (>75% of the tested compound remaining)”. Also, in data set [2], the “Assay 3 (SIF) (% @ Remaining 4 hours)” value is given as “C (>75% of the tested compound remaining)”.
